Drawing on patent publication US8530667B2, “Herbicides” (Syngenta Limited, priority 2007, dated 2013), this text covers pest or weed control for 11 compounds.

What all share (type): in vivo
Assay [1] relates to Amaranthus retoflexus (AMARE). As to the kind of experiment: Example B pre-emergence herbicidal activity, glasshouse pot test. The note with it: Amaranthus retroflexus, 312 h, Rate 250 g/ha, evaluated after 13 days, read-out: Pre-Emergence Activity AMARE (100=total damage to plant; 0=no damage to plant). As to the method: (§1) Seeds of a variety of test species were sown in standard soil in pots. After cultivation for one day (pre-emergence) or after 8 days cultivation (post-emergence) under controlled conditions in a glasshouse (at 24/16° C., day/night; 14 hours light; 65% humidity), the plants were sprayed with an aqueous spray solution derived from the formulation of the technical active ingredient in acetone/water (50:50) solution containing 0.5% Tween 20 (polyoxyethelyene sorbitan monolaurate, CAS RN 9005-64-5). The test plants were then grown in a glasshouse under controlled conditions in a glasshouse (at 24/16° C., day/night; 14 hours light; 65% humidity) and watered twice daily. After 13 days for pre and post-emergence, the test was evaluated (100=total damage to plant; 0=no damage to plant). Alopecurus myosuroides (ALOMY), Avena fatua (AVEFA), Setaria faberi (SETFA), Echinochloa crus-galli (ECHCG) and Amaranthus retoflexus (AMARE)

Assay [2] concerns Avena fatua (AVEFA). The assay is described as above. The note with it: 312 h, Rate 250 g/ha, evaluated after 13 days, read-out: Pre-Emergence Activity AVEFA (100=total damage to plant; 0=no damage to plant). As to the method: as §1
For assay [3], the system named is Alopecurus myosuroides (ALOMY). The description is as above. The note with it: 312 h, Rate 250 g/ha, evaluated after 13 days, read-out: Pre-Emergence Activity ALOMY (100=total damage to plant; 0=no damage to plant). The method, then: as §1
The subject of assay [4] is Echinochloa crus-galli (ECHCG). The assay is described as above. Particulars: 312 h, Rate 250 g/ha, evaluated after 13 days, read-out: Pre-Emergence Activity ECHCG (100=total damage to plant; 0=no damage to plant). As to the method: as §1
The subject of assay [5] is Setaria faberi (SETFA). The description is as above. The note with it: 312 h, Rate 250 g/ha, evaluated after 13 days, read-out: Pre-Emergence Activity SETFA (100=total damage to plant; 0=no damage to plant). The method, then:
as §1

Assay [6] relates to Amaranthus retoflexus (AMARE). As to the kind of experiment: Example B post-emergence herbicidal activity, glasshouse pot test. Particulars: Amaranthus retroflexus, 312 h, rate 250 g/ha, evaluated after 13 days, read-out: Post-emergence activity AMARE (100=total damage to plant; 0=no damage to plant). As to the method: as §1
Assay [7] concerns Avena fatua (AVEFA). The description is as above. The note with it: 312 h, rate 250 g/ha, evaluated after 13 days, read-out: Post-emergence activity AVEFA (100=total damage to plant; 0=no damage to plant). The method, then: as §1
Assay [8] relates to Alopecurus myosuroides (ALOMY). The description is as above. Particulars: 312 h, rate 250 g/ha, evaluated after 13 days, read-out: Post-emergence activity ALOMY (100=total damage to plant; 0=no damage to plant). The method, then: as §1
In assay [9] the test system is Echinochloa crus-galli (ECHCG). The assay is described as above. The note with it: 312 h, rate 250 g/ha, evaluated after 13 days, read-out: Post-emergence activity ECHCG (100=total damage to plant; 0=no damage to plant). The method, then: as §1
For assay [10], the system named is Setaria faberi (SETFA). The assay is described as above. The note with it: 312 h, rate 250 g/ha, evaluated after 13 days, read-out: Post-emergence activity SETFA (100=total damage to plant; 0=no damage to plant). As to the method:
as §1

For the compound `CCc1sc(-c2ccc(OC(F)F)cc2)nc1C1C(=O)[C@@H]2[C@H](C1=O)[C@H]1CC[C@@H]2O1` (some centres unmarked) [Compound T42], the pest or weed control at 250 g/ha in assay [1] stood at 0%; in the assay on Avena fatua (AVEFA) [2], 30%; in assay [3] it was 90%; in [4], 90%; in the assay with Setaria faberi (SETFA) [5], 100%; in assay [6], 0%. For the same compound, the pest or weed control at 250 g/ha (in the assay with Avena fatua (AVEFA) [7]; in assay [8]; in assay [9]; in the assay on Setaria faberi (SETFA) [10]) was 100% each time.
With `CCc1sc(-c2ccc(Br)cn2)nc1C1C(=O)[C@@H]2[C@H](C1=O)[C@H]1CC[C@@H]2O1` (some centres unmarked) [Compound T43], the pest or weed control at 250 g/ha in [1] came out at 0%; in the assay on Avena fatua (AVEFA) [2] it was 0%; in assay [3], 0%; in assay [4] it was 80%; with Setaria faberi (SETFA) [5], 60%; in assay [6], 0%. Besides, the pest or weed control at 250 g/ha with Avena fatua (AVEFA) [7] stood at 100%; in assay [8] it was 90%; in assay [9] it was 100%; in the assay with Setaria faberi (SETFA) [10] it was 100%.
Turning to `CCc1sc(-c2ccc(Cl)cc2Cl)nc1C1C(=O)[C@@H]2[C@H](C1=O)[C@H]1CC[C@@H]2O1` (some centres unmarked) [Compound T45], the pest or weed control at 250 g/ha in [1] came to 0%; in the assay with Avena fatua (AVEFA) [2] it was 60%; in assay [3] it was 90%; in assay [4], 100%; in the assay with Setaria faberi (SETFA) [5], 100%; in assay [6] it was 0%. Further, the pest or weed control at 250 g/ha (with Avena fatua (AVEFA) [7]; in assay [8]; in assay [9]; in the assay on Setaria faberi (SETFA) [10]) was 100% in each case.
With `CCc1sc(-c2cc(F)c(Cl)cc2Cl)nc1C1C(=O)[C@@H]2[C@H](C1=O)[C@H]1CC[C@@H]2O1` (some centres unmarked) [Compound T47], the pest or weed control at 250 g/ha in [1] came out at 0%; with Avena fatua (AVEFA) [2] it was 80%; in [3], 90%; in assay [4] it was 90%; with Setaria faberi (SETFA) [5] it was 100%; in [6], 0%. The pest or weed control at 250 g/ha (in the assay on Avena fatua (AVEFA) [7]; in [8]; in assay [9]; in the assay with Setaria faberi (SETFA) [10]) was 100% throughout.
As for `CSc1ccc(-c2nc(C3C(=O)[C@@H]4[C@H](C3=O)[C@H]3CC[C@@H]4O3)c(C)s2)cc1` (some centres unmarked) [Compound T48], the pest or weed control at 250 g/ha in assay [1] came to 0%; in the assay with Avena fatua (AVEFA) [2] it was 20%; in assay [3] it was 40%; in assay [4], 70%; in the assay on Setaria faberi (SETFA) [5], 90%; in assay [6], 40%. Also, the pest or weed control at 250 g/ha with Avena fatua (AVEFA) [7] worked out at 40%; in assay [8], 60%; in [9], 100%; in the assay on Setaria faberi (SETFA) [10] it was 90%.
As to `Cc1sc(-c2ccc([S+](C)[O-])cc2)nc1C1C(=O)[C@@H]2[C@H](C1=O)[C@H]1CC[C@@H]2O1` (some centres unmarked) [Compound T49], the pest or weed control at 250 g/ha in [1] worked out at 0%; in the assay on Avena fatua (AVEFA) [2] it was 0%; in [3], 20%; in [4] it was 70%; in the assay with Setaria faberi (SETFA) [5], 90%; in assay [6], 0%. In addition, the pest or weed control at 250 g/ha came to 30% with Avena fatua (AVEFA) [7], 50% in [8], 100% in [9] and 90% with Setaria faberi (SETFA) [10].
Turning to `CCc1sc(-c2ccc(SC)cc2)nc1C1C(=O)[C@@H]2[C@H](C1=O)[C@H]1CC[C@@H]2O1` (some centres unmarked) [Compound T50], the pest or weed control at 250 g/ha in assay [1] was found to be 0%; with Avena fatua (AVEFA) [2] it was 0%; in assay [3] it was 40%; in [4], 90%; with Setaria faberi (SETFA) [5], 90%; in assay [6], 0%. In addition, the pest or weed control at 250 g/ha with Avena fatua (AVEFA) [7] was determined as 90%; in assay [8], 90%; in [9] it was 100%; in the assay with Setaria faberi (SETFA) [10] it was 100%.
Turning to `Cc1sc(-c2ccc(C(C)C)cc2)nc1C1C(=O)[C@@H]2[C@H](C1=O)[C@H]1CC[C@@H]2O1` (some centres unmarked) [Compound T51], the pest or weed control at 250 g/ha in assay [1] turned out to be 0%; in the assay on Avena fatua (AVEFA) [2], 90%; in assay [3] it was 80%; in assay [4], 100%; with Setaria faberi (SETFA) [5], 100%; in assay [6], 0%. Besides, the pest or weed control at 250 g/ha with Avena fatua (AVEFA) [7] came out at 80%; in assay [8], 90%; in assay [9], 100%; in the assay with Setaria faberi (SETFA) [10], 90%.
As for `Cc1sc(-c2ccc(OC(F)F)cc2Cl)nc1C1C(=O)[C@@H]2[C@H](C1=O)[C@H]1CC[C@@H]2O1` (some centres unmarked) [Compound T52], the pest or weed control at 250 g/ha in assay [1] came out at 0%; with Avena fatua (AVEFA) [2], 90%; in [3], 70%; in [4] it was 100%; in the assay on Setaria faberi (SETFA) [5], 100%; in [6], 0%. Further, the pest or weed control at 250 g/ha (in the assay on Avena fatua (AVEFA) [7]; in [8]; in assay [9]; in the assay with Setaria faberi (SETFA) [10]) was 100% in each case.
As to `Cc1cnc(-c2ccc(Cl)cc2)nc1C1C(=O)[C@@H]2[C@H](C1=O)[C@H]1CC[C@@H]2O1` (some centres unmarked) [Compound T53], the pest or weed control at 250 g/ha in assay [1] was determined as 90%; in the assay on Avena fatua (AVEFA) [2], 70%; in assay [3] it was 50%; in assay [4], 80%; in the assay with Setaria faberi (SETFA) [5] it was 90%; in assay [6], 0%. For the same compound, the pest or weed control at 250 g/ha in the assay with Avena fatua (AVEFA) [7] was 70%; in assay [8], 60%; in assay [9], 90%; with Setaria faberi (SETFA) [10], 100%.
Consider `Cc1sc(-c2ccc(OC(F)F)cc2F)nc1C1C(=O)[C@@H]2[C@H](C1=O)[C@H]1CC[C@@H]2O1` (some centres unmarked) [Compound T54], for which the pest or weed control at 250 g/ha amounted to 0% in assay [1]; 100% in the assay on Avena fatua (AVEFA) [2]; 90% in assay [3]; 100% in assay [4]; 100% in the assay on Setaria faberi (SETFA) [5]; 40% in [6]. In addition, the pest or weed control at 250 g/ha (in the assay on Avena fatua (AVEFA) [7]; in assay [8]; in [9]; in the assay on Setaria faberi (SETFA) [10]) was 100% throughout.
